Laboratory results from a melting point compilation (Tetko et al.).

| SMILES | melting point [°C] |
| --- | --- |
| NNC(=O)c1cc(Br)c[nH]1 | 215 to 219 |
| CN(C)C1(C(=O)O)CCCSC1 (stereo not drawn) | 196 to 198 |
| O=C1CCC(Cc2ccc(O)cc2)O1 (stereo not drawn) | 104 to 106 |
| O=S1(=O)CCC2(CC1)CO2 | 168 to 170 |
| CC(=O)c1cnc2ccsc2c1 | 132 to 134 |
| COC(=O)c1cc(S(=O)(=O)N2CCOCC2)ccc1Cl | 74 to 76 |
| CN1Cc2ccccc2NC1=O | 200 to 203 |
| Nc1cccc(N2CCCC2=O)c1 | 106 to 108 |
| O=S(=O)(Cl)c1cnccc1Cl | 45 to 47 |
| CCOc1cc(C#N)ccc1O | 75 to 77 |
| ClCc1nnnn1CC1CC1 | 30 to 32 |
| CCN(CC)S(=O)(=O)c1cc(N)ccc1C | 166 to 169 |
| COc1cccc(-c2nc(CC(=O)O)cs2)c1OC | 156 to 158 |
| O=C(O)c1ccc(Cl)c(Cl)c1O | 212 to 214 |
| CCOC(=O)c1nc2c(s1)NCCCC2 | 144 to 146 |
| COc1ccc(-c2ccc(CN)s2)cc1 | 114 to 116 |
| NC(=O)c1ccc(N)nn1 | 256 to 258 |
| O=C(O)c1cnn(-c2ccccn2)c1 | 186 to 188 |
| COCCCS(=O)(=O)NCC(=O)O | 59 to 61 |
| N#Cc1c(OCCCO)n[nH]c1N | 155 to 157 |

| SMILES | melting point [°C] |
| --- | --- |
| CC(=O)CSc1ccccc1[N+](=O)[O-] | 74 to 76 |
| Cc1cc(Cl)nc(-c2ccc([N+](=O)[O-])cc2)n1 | 184 to 186 |
| CC1(C)C(O)CC1O (stereo not drawn) | 104 to 106 |
| FC(F)n1ccnc1Cn1cc(Br)cn1 | 79 to 81 |
| O=c1cc(CO)nc2ccc(Br)cn12 | 204 to 206 |
| O=c1c2ccccc2nc(O)n1-c1ccccc1 | 217 to 220 |
| NCC(O)COc1ccc2c(c1)OCO2 (stereo not drawn) | 107 to 109 |
| O=C(O)c1nn(-c2cc(C(F)(F)F)ccc2Cl)c2c1CCC2 | 229 to 231 |
| Cc1ccc(OCCCC(=O)O)c(C)c1 | 126 to 128 |
| CC(C)(C)C(=O)C(Cl)Cl | 50 to 52 |
| COc1ccc(NC(=O)CCl)c([N+](=O)[O-])c1 | 98 to 100 |
| Cn1c(-c2ccccc2)cnc1S | 180 to 182 |
| CCOc1ccc(-c2cc(C(=O)O)c3c(C)noc3n2)cc1 | 222 to 224 |
| CC(C)(C)c1ccc(-c2ccc(C=O)o2)cc1 | 70 to 72 |
| CCn1cc(C(=O)O)c(C(C)C)n1 | 122 to 124 |
| CC(=O)c1ccc(OCC(=O)N(C)C)cc1 | 125 to 127 |
| CCC(O)c1ccc(O)cc1 (stereo not drawn) | 81 to 83 |
| Oc1ccnc2cc(Br)ccc12 | 286 to 288 |
| O=[N+]([O-])c1ccc(Cl)cc1I | 62 to 64 |
| Cc1cccc(-n2c(S)nnc2-c2ccccc2)c1 | 133 to 135 |

| SMILES | melting point [°C] |
| --- | --- |
| CCOc1cc(C(=O)O)ccc1OCc1ccncc1 | 238 to 240 |
| NCc1ccc(C(N)=O)nc1 | 146 to 148 |
| Cc1nn(-c2ccccc2)c(C(F)F)c1C(=O)O | 206 to 208 |
| CCc1cccc(OCC(=O)O)c1 | 66 to 70 |
| FC(F)(F)Cn1cnnc1S | 93 to 95 |
| Cc1nn(-c2ccc(Cl)cc2)c(C)c1C(=O)O | 219 to 221 |
| COC(=O)c1ccccc1-c1ccc(C=O)o1 | 68 to 72 |
| NCc1ccc(N2CC=CC2)cc1 | 74 to 76 |
| NC(=O)c1cc(N)c(F)cc1F | 169 to 171 |
| CCCc1ccc(S(N)(=O)=O)cc1 | 208 to 210 |
| Oc1ccc(Cl)cc1C(F)(F)F | 67 to 69 |
| ClCc1csc(-c2ccccn2)n1 | 85 to 87 |
| O=C(O)c1ccc(N2CCCC2)c([N+](=O)[O-])c1 | 259 to 261 |
| CC(C)c1cnc(-c2ccc([N+](=O)[O-])cc2)o1 | 103 to 105 |
| O=S(=O)(Cl)c1csc(-c2cccc(Br)c2)n1 | 94 to 96 |
| O=C(Nc1ccncc1)OCC(F)(F)F | 193 to 195 |
| O=C(O)CNS(=O)(=O)Cc1ccccc1 | 153 to 155 |
| Cc1cc(CCC(=O)O)ccc1Br | 89 to 91 |
